The values that follow come from patent publication US20140050779A1, “[…]-2 INHIBITORS AND USES THEREOF” (SINGAPORE HEALTH SERVICES PTE. LTD., priority 2011, published 2014).

“Also recorded” adds a separate entry of the source.

Common to all, as to type: cell-based
For assay [1], the system named is TG-2. As to the kind of experiment: TG-2 colorimetric microassay (transamidase activity) in lysate of treated human scleral fibroblasts. As to conditions: for transamidase activity of endogenous cellular TG-2: human scleral fibroblasts, 0.1, 1, 10 and 100 μM for 5 days, concentration-dependent. As to the method: (§1) All cells used in examples described herein were between passages 2-4. Passaged cells were plated at a concentration of 2×10^5/mL into 6 well plates containing DMEM with 10% FBS. […] Old media was removed from wells and 1 mL of drug was added with fresh full medium and incubated at 37° C. Fresh drugs were replaced daily consecutively for the next 5 days to avoid oxidation. The drugs/media was removed and wells were washed twice with 1×PBS. 200 μl of RIPA lysis buffer was added per well and incubated for 5 minutes and cells were scrapped into an eppendorf tube. The cells were stored at −20° C. until sonication. The cells were sonicated on ice thrice at 20% output power for 5 seconds each time and rested 1 minute in between each turn. Cell debris was spun down at 12000 rpm for 20 minutes. The supernatant was poured into a new eppendorf tube and cell concentrations were determined using the Dc Protein assay Kit (Bio-Rad, MA). Passaged cells were plated at a concentration of 1×10^5 into 6 well plates containing DMEM with 10% FBS. […] Freshly prepared muscarinic agents' at base line, 0.1, 1, 10 and 100 μM concentrations were added for 5 days (Table 2). The culture medium was removed and fresh medium containing the same muscarinic drug added every day to avoid drug changes such as atropine oxidation. Cell lysate was collected for relative quantitative (q) PCR and protein analysis at day 5.
(§2) This assay was designed to assess the cross-linking activity of TG-2 between two proteins. TG activity was measured with TG-2 colorimetric Microassay kit (TG-Covtest, Covalab, Cambridge, UK). 150-200 μg of total protein was used per well for the TG-2 assay. Transglutaminase standards (Sigma) were used as a positive control. EDTA was used to inhibit the enzyme activity as a negative control.
(§3) The approximate volume of reagents to use, the wavelengths to use to read absorbance, the incubation times were determined from a previous study that have carried out experiments with similar principles as described in Perez Alea M, Kitamura M, Martin G, Thomas V, Hitomi K, El Alaoui S., “Development of an isoenzyme-specific colorimetric assay for tissue transglutaminase 2 cross-linking activity”, Anal Biochem. 2009 Jun. 15; 389(2):150-6, Epub 2009 March 24. All reagents used and protein coated plates were part of the kit. Biotin cadaverine was reconstituted with 6 ml of deionized water and 90 μl was added into each well of the 96 well plate that comes coated with CBZ-GLN-GLY. The rest of the steps were followed as in the manufacturer's instructions and finally absorbance was read at 450 nm using a microplate reader (TECAN, Austria). All incubations were performed with gentle shaking on a laboratory orbital shaker.
(§4) The TG-2 colorimetric assay serves as a high throughput and quantitative assay to assess transamidase activity. […] In vivo studies with these drugs were also conducted to determine the effect on myopia development (see FIGS. 14 and 15).

For assay [2], the system named is TG-2. The assay can be described thus: TG-2 colorimetric microassay (transamidase activity) in lysate of treated mouse scleral fibroblasts. As to conditions: for transamidase activity of endogenous cellular TG-2: mouse scleral fibroblasts, 0.1, 1, 10 and 100 μM for 5 days, concentration-dependent. As to the method:
as §1, §2, §3, §4

The test system of assay [3] is TG-2. The assay can be described thus: Western blot of TG proteins in human scleral fibroblasts after muscarinic agents. How it is done: (§5) All cells used in examples described herein were between passages 2-4. Passaged cells were plated at a concentration of 2×10^5/mL into 6 well plates containing DMEM with 10% FBS. The cells were seen to attach to the bottom of the culture wells after 4 hours. Old media was removed from wells and 1 mL of drug was added with fresh full medium and incubated at 37° C. Fresh drugs were replaced daily consecutively for the next 5 days to avoid oxidation. The drugs/media was removed and wells were washed twice with 1×PBS. 200 μl of RIPA lysis buffer was added per well and incubated for 5 minutes and cells were scrapped into an eppendorf tube. The cells were stored at −20° C. until sonication. The cells were sonicated on ice thrice at 20% output power for 5 seconds each time and rested 1 minute in between each turn. Cell debris was spun down at 12000 rpm for 20 minutes. The supernatant was poured into a new eppendorf tube and cell concentrations were determined using the Dc Protein assay Kit (Bio-Rad, MA). Passaged cells were plated at a concentration of 1×10^5 into 6 well plates containing DMEM with 10% FBS. The cells were seen to attach to the bottom of the culture wells after 4 hours. Freshly prepared muscarinic agents' at base line, 0.1, 1, 10 and 100 μM concentrations were added for 5 days (Table 2). The culture medium was removed and fresh medium containing the same muscarinic drug added every day to avoid drug changes such as atropine oxidation. Cell lysate was collected for relative quantitative (q) PCR and protein analysis at day 5.
(§6) The cells were lysed by sonification in 1×RIPA lysis buffer (santa cruz biotechnology, Sc-24948) with 10 μl PMSF solution, 10 μl sodium orthovanadate solution and 20 μl protease inhibitor cocktail solution. After centrifugation at 20,000×g at 4° C. for 20 minutes, and the supernatant collected. The protein content in the supernatants was measured using the DC Protein Assay kit (Bio-Rad, MA) following the manufacturer's instructions. Samples were stored at −80° C. until assayed.
(§7) The mouse and human scleral fibroblasts were treated with atropine or carbachol at 0.01, 0.1, 1, 5 and 10 μM concentrations for 5 days. Following 5 days of treatment, the total cellular protein was extracted from these cells and TG proteins detected via Western blot analysis.
Human and, mouse scleral fibroblast proteins in the supernatant were separated by SDS-PAGE, transferred to nitrocellulose membranes, blocked in 5% BSA in TBST (10 mM Tris-HCl [pH 8.0], 150 mM NaCl, and […] Tween-20) for 2 hours at room temperature, and incubated with the same anti-TG-2 antibody described herein at a dilution of 1:1000 and anti β-tubulin antibodies used as a positive control, for 1 hour at room temperature. […]
Background: In western blotting, separated proteins are transferred to a membrane and probed.

Assay [4] has as its system TG-2. As to the kind of experiment: Western blot of TG proteins in mouse scleral fibroblasts after muscarinic agents. As to the method:
as §5, §6, §7
Human and, mouse scleral fibroblast proteins in the supernatant were separated by SDS-PAGE, transferred to nitrocellulose membranes, blocked in 5% BSA in TBST (10 mM Tris-HCl [pH 8.0], 150 mM NaCl, and […] Tween-20) for 2 hours at room temperature, and incubated with the same anti-TG-2 antibody described herein at a dilution of 1:1000 and anti β-tubulin antibodies used as a positive control, for 1 hour at room temperature. The membranes were washed 3 times in TBST and incubated with HRP-conjugated secondary antibody (Chemicon International) at a dilution of 1:2500 for 1 hour at room temperature. Immunoreactive bands were visualized using the enhanced chemiluminescence method (GE Healthcare, Buckinghamshire, UK). The membrane was wrapped in plastic and placed against an X-ray film to expose for an appropriate length of time (30 seconds-5 minutes).

The mark [5] stands for this setting: 0.01-10 μM for 5 days, Western blot.
Where [6] appears, read: specific muscarinic antagonists.

Consider `CN1[C@@H]2CC[C@H]1C[C@@H](OC(=O)C(CO)c1ccccc1)C2` (stereo partly shown) [atropine], for which the “transamidase activity of endogenous cellular TG-2” value in assay [1] and in assay [2] was “reduced” throughout. Moreover, the “TG-2 activity, strongest reduction” value in assay [2] (mouse scleral fibroblasts, 0.1 μM, saturated at 1, 10 and 100 μM) is recorded as “most significantly reduced”. Further, the TG-2 protein level entry is on record as “reduced” in assay [3] (setting [5]) and “reduced; also recorded: reduction” in assay [4] (setting [5]).

For the compound `C[C@@H]1OC(=O)[C@H]2C[C@H]3CCCC[C@@H]3[C@@H](/C=C/[C@H]3CCC[C@H](C)N3C)[C@@H]12` [himbacine], the “transamidase activity of endogenous cellular TG-2” value in assay [1] and in assay [2] was “reduced” in each case. Besides, the “TG-2 activity, strongest reduction among the antagonists” value in assay [1] (human scleral fibroblasts, all concentrations) was “most significantly reduced”; in assay [2] (mouse scleral fibroblasts), “most significantly reduced”. The “TG-2 activity as compared to atropine” value in assay [1] (human scleral fibroblasts, himbacine 0.1, 1, 10 & 100 μM, darifenacin 0.1, 1 & 10 μM) is reported as “more significantly reduced”. For the same compound, in assay [2] (mouse scleral fibroblasts, high concentration (100 μM)), the “TG2 activity as compared to atropine” value is “most significantly reduced”. The TG-2 protein level result in assay [3] (setting [6]) and in assay [4] (setting [6]) was “significantly reduced” throughout.
